In patent US12391990B2, “Determination of magnesium body concentration” (Vanderbilt University, priority 2019, dated 2025):

Columns and labels:
[1] = system: 5-hmC levels in rectal tissues; experiment: 5-hmC affinity enrichment sequencing of pre- and post-treatment rectal tissues; assay type: in vivo, human; conditions: rectal tissue
Procedure: 5-hmC alterations induced by Mg treatment. As mentioned, due to technological limitations, distinguishing 5-hmC from 5-mC has only recently been possible. Using the technology an evaluation was conducted of 5-hmC in normal rectal mucosa collected at baseline from 7 participants of the PPCCT. 5-hmC-specific affinity pull-down^142 samples were sequenced using the Illumina next-generation sequencing (50 bp single-end). The raw sequencing reads were mapped to the human genome reference (hg19) using Bowtie2^153. 5-hmC peaks (i.e. enriched 5-hmC regions) were then called using the MACS algorithm^154. There are two important findings. 1) There are approximately 13,000-15,000 high quality 5-hmC peaks across the genomes at p<1e-5 calculated by MACS.
Genome-wide 5-hmC was also measured in pre- (i.e. baseline) and post-treatment rectal tissues (i.e. after 3-month Mg supplementation). In this analysis, one individual was included in the treatment arm and the other in the placebo arm. Two-hundred ninety-six (296) and 1271 genes were found with ≥4-fold or ≥3-fold changes in 5-hmC levels from baseline, respectively, in the treatment arm compared to 39 and 176 in the placebo arm (Table 1). Thus, the treatment arm has a much larger number of affected genes than the placebo arm.
Furthermore, the majority of the changes found in 5-hmC caused by Mg treatment are up-modifications, very consistent with findings from in vitro and in vivo studies of vitamin C treatment^86;87.

[2] = 49 days of Mg repletion after 3-month Mg depletion, previous human study, from 0.81 to 0.86, p=0.06; cited from earlier work
[3] = Magnesium tolerance test (MTT), percent Mg retention from 24-hour urine; assay type: in vivo, human; conditions: after 12-week Mg supplementation, ongoing trial
Excerpt: In a magnesium tolerance test, a health care professional, such as a doctor, gives a participant a shot of a known amount of magnesium and then later uses the participant's urine to determine how much magnesium the participant's body retained, and how much the body eliminated.
In an exemplary study as described herein, participants who completed the study received a schedule of planned magnesium tolerance tests on two consecutive days. A 24-hour urine sample was collected for determining the basal urinary magnesium excretion prior to the intravenous infusion of magnesium sulfate. Another 24-hour urine sample was obtained starting with the IV infusion.
• 1. […] Percentage magnesium retained is calculated by the formula below (Mg: magnesium) […]
A Mg tolerance test, the most accurate approach to evaluate Mg nutriture, is conducted at the end of trial. […] For the Mg tolerance test, the participant's percent retention is calculated by the following formula: [1−(post infusion Mg excretion-pre infusion Mg excretion)/total Mg infused]×100. […]
MTT was conducted on 78 subjects in PPCCT. […] Urine magnesium level was measured using 7D70 Magnesium Reagent Kit from Abbot Laboratories (Abbott Park, TL). […] The absorbance of the arsenazo-magnesium complex is measured at 572 nm and is proportional to the concentration of magnesium present in the sample.

[4] = system: 5-hmC and 5-mC in tissues; conditions: vitamin C supplementation, all three tissues; cited from earlier work
[5] = system: embryonic stem cells; conditions: vitamin C supplementation, cited from earlier work
[6] = treatment arm, one individual, after 3-month Mg supplementation

SMILES | Direction of the majority of changes in 5-hmC ([1]; Mg treatment) | Number of genes with ≥3-fold change in 5-hmC peaks from baseline [1, 6] | Number of genes with ≥4-fold change in 5-hmC peaks from baseline [1, 6] | Increase in serum Mg [2] [%] | Individuals who still had Mg deficiency (retention ≥50% in Mg tolerance test) [3] [%] | 5-hmC concentrations in tissues [4] | Number of genes with over 2-fold changes in expression ([5]; primarily up-modifications) | Change in 5-hmC [5]
NCC(=O)[O-].NCC(=O)[O-].[Mg+2] [Mg] | up-modifications | 1271 | 296 | 6 | 42 | – | – | –
O=C1O[C@H]([C@@H](O)CO)C(O)=C1O [vitamin C] | – | – | – | – | – | significantly elevated | approximately 200 | genome-wide increase in 5-hmC
